# Experimental data published in PubChem BioAssay (NCI).
#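 Cells were grown in 96-well plates and exposed to each compound for 48 hours at five concentrations; endpoints were interpolated linearly between bracketing concentrations, or set to the highest concentration if not reached. TGI: total growth inhibition.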
# Columns and labels:
# Experiment in all cases: NCI-60 cell line screen, 48 h
# [1] = test system: 786-0 renal
# [2] = test system: A498 renal
# [3] = test system: A549 NSCLC
# [4] = test system: ACHN renal
# [5] = test system: BT-549 breast
# [6] = test system: CAKI-1 renal
# [7] = test system: CCRF-CEM leukemia
# [8] = test system: COLO 205 colon
# [9] = test system: DU-145 prostate
# [10] = test system: EKVX NSCLC
# [11] = test system: HCC-2998 colon
# [12] = test system: HCT-116 colon
# [13] = test system: HCT-15 colon
# [14] = test system: HL-60(TB) leukemia
# [15] = test system: HOP-62 NSCLC
# [16] = test system: HOP-92 NSCLC
# [17] = test system: HS 578T breast
# [18] = test system: HT29 colon
# [19] = test system: IGROV1 ovarian
# [20] = test system: K-562 leukemia
# [21] = test system: KM12 colon
# [22] = test system: LOX IMVI melanoma
# [23] = test system: M14 melanoma
# [24] = test system: MALME-3M melanoma
# [25] = test system: MCF7 breast
# [26] = test system: MDA-MB-231 breast
# [27] = test system: MDA-MB-435
# [28] = test system: MDA-N
# [29] = test system: MOLT-4 leukemia
# [30] = test system: NCI-H226 lung
# [31] = test system: NCI-H23 lung
# [32] = test system: NCI-H460 lung
# [33] = test system: NCI-H522 lung
# [34] = test system: NCI/ADR-RES ovarian
# [35] = test system: OVCAR-3 ovarian
# [36] = test system: OVCAR-4 ovarian
# [37] = test system: OVCAR-5 ovarian
# [38] = test system: OVCAR-8 ovarian
# [39] = test system: PC-3 prostate
# [40] = test system: RPMI-8226 leukemia
# [41] = test system: RXF 393 renal
# [42] = test system: SF-268 CNS
# [43] = test system: SF-295 CNS
# [44] = test system: SF-539 CNS
# [45] = test system: SK-MEL-2 melanoma
# [46] = test system: SK-MEL-28 melanoma
# [47] = test system: SK-MEL-5 melanoma
# [48] = test system: SK-OV-3 ovarian
# [49] = test system: SN12C renal
# [50] = test system: SNB-19 CNS
# [51] = test system: SNB-75 CNS
# [52] = test system: SR leukemia
# [53] = test system: SW-620 colon
# [54] = test system: T-47D breast
# [55] = test system: TK-10 renal
# [56] = test system: U251 CNS
# [57] = test system: UACC-257 melanoma
# [58] = test system: UACC-62 melanoma
# [59] = test system: UO-31 renal
structure (smiles),measurement,setting,value
C=CC[C@@]1(C)CCCCCCCCC[C@@](C)(CC=C)C1=O,TGI,[1],> 100 µM
same,TGI,[2],36.4 µM
same,TGI,[3],> 100 µM
same,TGI,[4],> 100 µM
same,TGI,[5],62.3 µM
same,TGI,[6],> 100 µM
same,TGI,[7],42.8 µM
same,TGI,[8],42.3 µM
same,TGI,[9],> 100 µM
same,TGI,[10],> 100 µM
same,TGI,[11],35 µM
same,TGI,[12],> 100 µM
same,TGI,[13],> 100 µM
same,TGI,[14],46.1 µM
same,TGI,[15],> 100 µM
same,TGI,[16],> 100 µM
same,TGI,[17],42.9 µM
same,TGI,[18],38.2 µM
same,TGI,[19],> 100 µM
same,TGI,[20],74.5 µM
same,TGI,[21],94.5 µM
same,TGI,[22],33.6 µM
same,TGI,[23],> 100 µM
same,TGI,[24],58.1 µM
same,TGI,[25],> 100 µM
same,TGI,[26],80.9 µM
same,TGI,[27],> 100 µM
same,TGI,[28],> 100 µM
same,TGI,[29],43.2 µM
same,TGI,[30],48.4 µM
same,TGI,[31],63.9 µM
same,TGI,[32],59.1 µM
same,TGI,[33],59.4 µM
same,TGI,[34],> 100 µM
same,TGI,[35],38.1 µM
same,TGI,[36],> 100 µM
same,TGI,[37],> 100 µM
same,TGI,[38],57.9 µM
same,TGI,[39],> 100 µM
same,TGI,[40],66.7 µM
same,TGI,[41],32.6 µM
same,TGI,[42],> 100 µM
same,TGI,[43],37.4 µM
same,TGI,[44],> 100 µM
same,TGI,[45],37.9 µM
same,TGI,[46],> 100 µM
same,TGI,[47],29.5 µM
same,TGI,[48],> 100 µM
same,TGI,[49],76.8 µM
same,TGI,[50],45 µM
same,TGI,[51],92.4 µM
same,TGI,[52],63.7 µM
same,TGI,[53],63.5 µM
same,TGI,[54],60.9 µM
same,TGI,[55],> 100 µM
same,TGI,[56],33 µM
same,TGI,[57],58.6 µM
same,TGI,[58],67.5 µM
same,TGI,[59],> 100 µM
COc1ccc(-c2cc(=O)c3c(O)cc(C)cc3o2)cc1OC,TGI,[1],> 100 µM
same,TGI,[3],> 100 µM
same,TGI,[4],> 100 µM
same,TGI,[5],> 100 µM
same,TGI,[7],> 100 µM
same,TGI,[8],> 100 µM
same,TGI,[9],> 100 µM
same,TGI,[10],> 100 µM
same,TGI,[11],> 100 µM
same,TGI,[12],> 100 µM
same,TGI,[13],> 100 µM
same,TGI,[14],> 100 µM
same,TGI,[15],> 100 µM
same,TGI,[16],> 100 µM
same,TGI,[17],> 100 µM
same,TGI,[18],> 100 µM
same,TGI,[19],> 100 µM
same,TGI,[20],> 100 µM
same,TGI,[21],> 100 µM
same,TGI,[22],> 100 µM
same,TGI,[23],> 100 µM
same,TGI,[24],> 100 µM
same,TGI,[25],> 100 µM
same,TGI,[26],> 100 µM
same,TGI,[27],> 100 µM
same,TGI,[28],> 100 µM
same,TGI,[29],> 100 µM
same,TGI,[30],> 100 µM
same,TGI,[31],> 100 µM
same,TGI,[32],> 100 µM
same,TGI,[33],> 100 µM
same,TGI,[34],> 100 µM
same,TGI,[35],> 100 µM
same,TGI,[36],> 100 µM
same,TGI,[37],> 100 µM
same,TGI,[39],> 100 µM
same,TGI,[40],> 100 µM
same,TGI,[41],> 100 µM
same,TGI,[42],> 100 µM
same,TGI,[43],> 100 µM
same,TGI,[44],> 100 µM
same,TGI,[45],> 100 µM
same,TGI,[46],> 100 µM
same,TGI,[47],> 100 µM
same,TGI,[48],> 100 µM
same,TGI,[49],> 100 µM
same,TGI,[50],> 100 µM
same,TGI,[51],> 100 µM
same,TGI,[52],> 100 µM
same,TGI,[53],> 100 µM
same,TGI,[54],> 100 µM
same,TGI,[55],> 100 µM
same,TGI,[56],> 100 µM
same,TGI,[57],> 100 µM
same,TGI,[58],> 100 µM
same,TGI,[59],> 100 µM
CC(C)C1OC(/C=C/c2ccccc2)OCC1(C)C (stereo not given),TGI,[1],> 100 µM
same,TGI,[2],63.7 µM
same,TGI,[3],> 100 µM
same,TGI,[4],> 100 µM
same,TGI,[5],> 100 µM
same,TGI,[6],> 100 µM
same,TGI,[7],41.8 µM
same,TGI,[8],31.2 µM
same,TGI,[9],> 100 µM
same,TGI,[10],82.3 µM
same,TGI,[11],38.5 µM
same,TGI,[12],92 µM
same,TGI,[13],> 100 µM
same,TGI,[14],38.3 µM
same,TGI,[15],> 100 µM
same,TGI,[16],52.5 µM
same,TGI,[17],88.7 µM
same,TGI,[18],> 100 µM
same,TGI,[19],> 100 µM
same,TGI,[20],> 100 µM
same,TGI,[21],> 100 µM
same,TGI,[22],36.6 µM
same,TGI,[23],> 100 µM
same,TGI,[24],25.8 µM
same,TGI,[25],> 100 µM
same,TGI,[26],94.7 µM
same,TGI,[27],> 100 µM
same,TGI,[28],> 100 µM
same,TGI,[30],63 µM
same,TGI,[31],98.9 µM
same,TGI,[32],39.9 µM
same,TGI,[33],32.2 µM
same,TGI,[34],> 100 µM
same,TGI,[35],44.9 µM
same,TGI,[36],> 100 µM
same,TGI,[37],> 100 µM
same,TGI,[38],> 100 µM
same,TGI,[39],> 100 µM
same,TGI,[40],47 µM
same,TGI,[41],42.3 µM
same,TGI,[42],> 100 µM
same,TGI,[43],> 100 µM
same,TGI,[45],37.5 µM
same,TGI,[46],> 100 µM
same,TGI,[47],37.5 µM
same,TGI,[48],> 100 µM
same,TGI,[49],44 µM
same,TGI,[50],> 100 µM
same,TGI,[51],78.6 µM
same,TGI,[52],> 100 µM
same,TGI,[53],> 100 µM
same,TGI,[54],> 100 µM
same,TGI,[55],80.8 µM
same,TGI,[56],60.8 µM
same,TGI,[57],63.6 µM
same,TGI,[58],> 100 µM
same,TGI,[59],> 100 µM
C=CCNC1=C2C[C@@H](C)C[C@@H](OC)[C@H](OC(=O)CN)[C@H](C)/C=C(\C)[C@@H](OC(N)=O)[C@H](OC)/C=C\C=C(/C)C(=O)NC(=CC1=O)C2=O,TGI,[1],20.7 µM
same,TGI,[2],28.4 µM
same,TGI,[3],21 µM
same,TGI,[4],19.6 µM
same,TGI,[5],28.3 µM
same,TGI,[6],18.1 µM
same,TGI,[7],> 29.8 µM
same,TGI,[8],5.23 µM
same,TGI,[9],> 40.9 µM
same,TGI,[10],21.7 µM
same,TGI,[11],1.29 µM
same,TGI,[12],14.4 µM
same,TGI,[13],22.5 µM
same,TGI,[14],8.53 µM
same,TGI,[15],19.9 µM
same,TGI,[16],8.71 µM
same,TGI,[17],80.1 µM
same,TGI,[18],17.6 µM
same,TGI,[19],15.5 µM
same,TGI,[20],> 47.4 µM
same,TGI,[21],9.87 µM
same,TGI,[22],6.45 µM
same,TGI,[23],22.3 µM
same,TGI,[24],21.8 µM
same,TGI,[25],12.8 µM
same,TGI,[26],15.6 µM
same,TGI,[27],14.3 µM
same,TGI,[28],13 µM
same,TGI,[29],> 36.1 µM
same,TGI,[31],21.3 µM
same,TGI,[32],18.3 µM
same,TGI,[33],18.8 µM
same,TGI,[34],> 100 µM
same,TGI,[35],7.41 µM
same,TGI,[36],29.2 µM
same,TGI,[37],25 µM
same,TGI,[38],18.3 µM
same,TGI,[39],11.9 µM
same,TGI,[40],> 52.3 µM
same,TGI,[41],17 µM
same,TGI,[42],29.7 µM
same,TGI,[43],12.6 µM
same,TGI,[44],15.9 µM
same,TGI,[45],18.7 µM
same,TGI,[46],29.7 µM
same,TGI,[47],17.9 µM
same,TGI,[48],12.5 µM
same,TGI,[49],17.1 µM
same,TGI,[50],25.5 µM
same,TGI,[51],9.59 µM
same,TGI,[52],> 40 µM
same,TGI,[53],> 100 µM
same,TGI,[54],> 25.5 µM
same,TGI,[55],14.2 µM
same,TGI,[56],29.1 µM
same,TGI,[57],15.7 µM
same,TGI,[58],12 µM
same,TGI,[59],19.7 µM
